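Growth conditions: 96-well plates. Treatment: test compound, 48 hours, 5 concentrations. Analysis: linear interpolation between bracketing concentrations; unreached endpoints set to highest concentration. GI50 marks 50% less growth.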 Active and inactive are the calls of the source. No stated cut-off is given here; in the data, active = GI50 up to about 1.1 µM and inactive = higher.
Key:
Test in all cases: NCI-60 cell line screen, 48 h
DU-145 = system: DU-145
HT-29 = system: HT-29
MCF7 = system: MCF7
T47D = system: T47D
BT-549 = system: BT-549
SF-268 = system: SF-268
RXF 393 = system: RXF 393
HOP-92 = system: HOP-92
M14 = system: M14
NCI/ADR-RES = system: NCI/ADR-RES
CCRF-CEM = system: CCRF-CEM
HCT-116 = system: HCT-116
OVCAR-5 = system: OVCAR-5
Hs-578T = system: Hs-578T
NCI-H460 = system: NCI-H460
HL-60 = system: HL-60
SN12C = system: SN12C
U-251 = system: U-251
NCI-H23 = system: NCI-H23
A498 = system: A498

For COc1cc2c3c(n(C)c(=O)c2cc1OC)-c1cc2c(cc1C3=O)OCO2, the GI50 (DU-145) was 12 µM (inactive), the GI50 (HT-29) was 46.5 µM (inactive) and the GI50 (MCF7) was 1.23 µM (inactive). The GI50 (T47D) was 6.64 µM (inactive), the GI50 (BT-549) was > 86.9 µM (inactive) and the GI50 (SF-268) was 10.7 µM (inactive). The GI50 (RXF 393) was 30.3 µM (inactive), the GI50 (HOP-92) was 38.2 µM (inactive) and the GI50 (M14) was 9.91 µM (inactive). For the same compound, the GI50 (NCI/ADR-RES) was 41.9 µM (inactive), the GI50 (CCRF-CEM) was 0.237 µM (active) and the GI50 (HCT-116) was 6.35 µM (inactive). The GI50 (OVCAR-5) was 54 µM (inactive), the GI50 (Hs-578T) was > 80 µM (inactive) and the GI50 (NCI-H460) was 0.596 µM (active). The GI50 (HL-60) was 22 µM (inactive), the GI50 (SN12C) was 38.6 µM (inactive) and the GI50 (U-251) was 9.38 µM (inactive). For the same compound, the GI50 (NCI-H23) was 5.01 µM (inactive) and the GI50 (A498) was 46.2 µM (inactive).

COc1ccccc1-c1cc(O)c2cccnc2n1 was tested, and the GI50 (DU-145) was > 100 µM (inactive), the GI50 (HT-29) was 23.4 µM (inactive) and the GI50 (MCF7) was 6.59 µM (inactive). For the same compound, the GI50 (T47D) was 69.7 µM (inactive), the GI50 (BT-549) was 22.2 µM (inactive) and the GI50 (SF-268) was 72.4 µM (inactive). The GI50 (RXF 393) was > 100 µM (inactive), the GI50 (HOP-92) was 7.89 µM (inactive) and the GI50 (M14) was 38.4 µM (inactive). For the same compound, the GI50 (NCI/ADR-RES) was 37 µM (inactive), the GI50 (CCRF-CEM) was 22.9 µM (inactive) and the GI50 (HCT-116) was 27.5 µM (inactive). The GI50 (OVCAR-5) was > 100 µM (inactive), the GI50 (Hs-578T) was 61 µM (inactive) and the GI50 (NCI-H460) was 39.4 µM (inactive). The GI50 (HL-60) was 39.3 µM (inactive), the GI50 (SN12C) was 50.2 µM (inactive) and the GI50 (U-251) was 40.3 µM (inactive). For the same compound, the GI50 (NCI-H23) was 35.2 µM (inactive) and the GI50 (A498) was 54.2 µM (inactive).

For c1ccc([P+](CCCCCCCC[P+](c2ccccc2)(c2ccccc2)c2ccccc2)(c2ccccc2)c2ccccc2)cc1, the GI50 (DU-145) was 30 µM (inactive), the GI50 (HT-29) was 2.04 µM (inactive) and the GI50 (MCF7) was 4.48 µM (inactive). For the same compound, the GI50 (T47D) was 5.16 µM (inactive), the GI50 (BT-549) was 1.99 µM (inactive) and the GI50 (SF-268) was 3.5 µM (inactive). The GI50 (RXF 393) was 31.6 µM (inactive), the GI50 (HOP-92) was 3.07 µM (inactive) and the GI50 (M14) was 35.6 µM (inactive). The GI50 (NCI/ADR-RES) was > 100 µM (inactive), the GI50 (CCRF-CEM) was 9.23 µM (inactive) and the GI50 (HCT-116) was 1.87 µM (inactive). For the same compound, the GI50 (OVCAR-5) was 11.2 µM (inactive), the GI50 (Hs-578T) was 2.06 µM (inactive) and the GI50 (NCI-H460) was 3.25 µM (inactive). The GI50 (HL-60) was 1.03 µM (active), the GI50 (SN12C) was 3.73 µM (inactive) and the GI50 (U-251) was 0.22 µM (active). The GI50 (NCI-H23) was 2.16 µM (inactive) and the GI50 (A498) was > 31.8 µM (inactive).

In the case of COc1cccc(Nc2nc(NNC(=O)Cc3ccccc3)nc(NNC(=O)c3ccncc3)n2)c1, the GI50 (DU-145) is reported as > 10 µM (inactive), the GI50 (HT-29) is reported as > 100 µM (inactive) and the GI50 (MCF7) is reported as > 10 µM (inactive). The GI50 (T47D) was > 10 µM (inactive), the GI50 (BT-549) was > 10 µM (inactive) and the GI50 (SF-268) was > 10 µM (inactive). The GI50 (RXF 393) was > 100 µM (inactive), the GI50 (HOP-92) was > 10 µM (inactive) and the GI50 (M14) was 79.4 µM (inactive). The GI50 (NCI/ADR-RES) was > 10 µM (inactive), the GI50 (CCRF-CEM) was > 10 µM (inactive) and the GI50 (HCT-116) was > 100 µM (inactive). The GI50 (OVCAR-5) was > 100 µM (inactive), the GI50 (Hs-578T) was > 10 µM (inactive) and the GI50 (NCI-H460) was > 10 µM (inactive). For the same compound, the GI50 (HL-60) was 68.1 µM (inactive), the GI50 (SN12C) was > 10 µM (inactive) and the GI50 (U-251) was > 10 µM (inactive). For the same compound, the GI50 (NCI-H23) was > 10 µM (inactive) and the GI50 (A498) was > 100 µM (inactive).

With CCOC(=O)NC(NNc1ccc([N+](=O)[O-])cc1[N+](=O)[O-])(C(F)(F)F)C(F)(F)F the GI50 (DU-145) was 40.3 µM (inactive), the GI50 (HT-29) was 32.3 µM (inactive) and the GI50 (MCF7) was 62.5 µM (inactive). The GI50 (T47D) was 35.1 µM (inactive), the GI50 (BT-549) was 25.5 µM (inactive) and the GI50 (SF-268) was 43.4 µM (inactive). The GI50 (RXF 393) was 27.8 µM (inactive), the GI50 (HOP-92) was 12.7 µM (inactive) and the GI50 (M14) was 65.2 µM (inactive). For the same compound, the GI50 (NCI/ADR-RES) was 33.3 µM (inactive), the GI50 (CCRF-CEM) was 20.6 µM (inactive) and the GI50 (HCT-116) was 32.1 µM (inactive). For the same compound, the GI50 (OVCAR-5) was 46 µM (inactive), the GI50 (Hs-578T) was 34.4 µM (inactive) and the GI50 (NCI-H460) was 27.5 µM (inactive). The GI50 (HL-60) was 14.4 µM (inactive), the GI50 (SN12C) was 27.7 µM (inactive) and the GI50 (U-251) was 22 µM (inactive). The GI50 (NCI-H23) was 31.7 µM (inactive) and the GI50 (A498) was 19.7 µM (inactive).

For NS(=O)(=O)c1ccc(NC(=S)N/C=C2\C(=O)Oc3ccccc3C2=O)cc1, the GI50 (DU-145) was 27.4 µM (inactive), the GI50 (HT-29) was 53.5 µM (inactive) and the GI50 (MCF7) was 99.5 µM (inactive). For the same compound, the GI50 (T47D) was 41.9 µM (inactive), the GI50 (BT-549) was 34.7 µM (inactive) and the GI50 (SF-268) was 38.5 µM (inactive). For the same compound, the GI50 (RXF 393) was 12.2 µM (inactive), the GI50 (HOP-92) was 15.3 µM (inactive) and the GI50 (M14) was 21.3 µM (inactive). For the same compound, the GI50 (NCI/ADR-RES) was 31.4 µM (inactive), the GI50 (CCRF-CEM) was 37.9 µM (inactive) and the GI50 (HCT-116) was 33.5 µM (inactive). The GI50 (OVCAR-5) was 54.5 µM (inactive), the GI50 (Hs-578T) was 17.5 µM (inactive) and the GI50 (NCI-H460) was 39.1 µM (inactive). The GI50 (HL-60) was 21.4 µM (inactive), the GI50 (SN12C) was 22.5 µM (inactive) and the GI50 (U-251) was 36.2 µM (inactive). For the same compound, the GI50 (NCI-H23) was 38.5 µM (inactive) and the GI50 (A498) was 20.5 µM (inactive).
